Results from ChEMBL document CHEMBL1201862, “PubChem BioAssay data set” (2004).
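96-well plates; 48 h exposure; 5 concentrations. Endpoints by linear interpolation between flanking doses. Not reached: highest tested concentration assigned. The concentration for 50% growth inhibition is given as GI50.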 Calls of active or inactive are those of the source. Rule as the data show it: active = GI50 up to about 1.1 µM and inactive = higher.

What was measured:
Test in all cases: inhibition of tumour cell growth, NCI panel, 48 h
A498 = tested on: A498
HL-60 = tested on: HL-60
MOLT-4 = tested on: MOLT-4
SK-OV-3 = tested on: SK-OV-3
ACHN = tested on: ACHN
OVCAR-4 = tested on: OVCAR-4
NCI-H226 = tested on: NCI-H226
SF-268 = tested on: SF-268
MCF7 = tested on: MCF7
HOP-62 = tested on: HOP-62
NCI-H23 = tested on: NCI-H23
MDA-MB-435 = tested on: MDA-MB-435
SW-620 = tested on: SW-620
Malme-3M = tested on: Malme-3M
COLO 205 = tested on: COLO 205
SK-MEL-5 = tested on: SK-MEL-5
OVCAR-8 = tested on: OVCAR-8
LOX IMVI = tested on: LOX IMVI
OVCAR-3 = tested on: OVCAR-3
786-0 = tested on: 786-0
RXF 393 = tested on: RXF 393
OVCAR-5 = tested on: OVCAR-5
A549 = tested on: A549
KM12 = tested on: KM12
HCC 2998 = tested on: HCC 2998
UO-31 = tested on: UO-31
HCT-15 = tested on: HCT-15
Hs-578T = tested on: Hs-578T
MDA-N = tested on: MDA-N
SF-539 = tested on: SF-539
SNB-19 = tested on: SNB-19
SNB-75 = tested on: SNB-75
HT-29 = tested on: HT-29
UACC-62 = tested on: UACC-62
IGROV-1 = tested on: IGROV-1
HOP-92 = tested on: HOP-92
CAKI-1 = tested on: CAKI-1
SR = tested on: SR
SK-MEL-2 = tested on: SK-MEL-2
BT-549 = tested on: BT-549
NCI-H460 = tested on: NCI-H460
M14 = tested on: M14
NCI-H522 = tested on: NCI-H522
TK-10 = tested on: TK-10
U-251 = tested on: U-251
HCT-116 = tested on: HCT-116
UACC-257 = tested on: UACC-257
SK-MEL-28 = tested on: SK-MEL-28
T47D = tested on: T47D
SF-295 = tested on: SF-295
PC-3 = tested on: PC-3
SN12C = tested on: SN12C
MDA-MB-231 = tested on: MDA-MB-231
NCI/ADR-RES = tested on: NCI/ADR-RES
RPMI-8226 = tested on: RPMI-8226
DU-145 = tested on: DU-145

Measured: GI50

O=C1N=C(c2ccccc2)O/C1=C\c1ccccc1
> 100 µM: HCT-15
inactive: A498 > 100 µM | HL-60 > 100 µM | MOLT-4 > 100 µM | SK-OV-3 > 100 µM | ACHN > 100 µM | OVCAR-4 > 100 µM | NCI-H226 > 100 µM | SF-268 > 100 µM | MCF7 > 100 µM | HOP-62 > 100 µM | NCI-H23 > 100 µM | MDA-MB-435 > 100 µM | SW-620 > 100 µM | Malme-3M > 100 µM | COLO 205 > 100 µM | SK-MEL-5 > 100 µM | OVCAR-8 > 100 µM | LOX IMVI > 100 µM | OVCAR-3 > 100 µM | 786-0 > 100 µM | RXF 393 > 100 µM | OVCAR-5 > 100 µM | A549 > 100 µM | KM12 > 100 µM | HCC 2998 > 100 µM | UO-31 > 100 µM | Hs-578T > 100 µM | MDA-N > 100 µM | SF-539 > 100 µM | SNB-19 > 100 µM | SNB-75 > 100 µM | HT-29 > 100 µM | UACC-62 > 100 µM | IGROV-1 > 100 µM | HOP-92 > 100 µM | CAKI-1 > 100 µM | SR > 100 µM | SK-MEL-2 > 100 µM | BT-549 > 100 µM | NCI-H460 > 100 µM | M14 > 100 µM | NCI-H522 > 100 µM | TK-10 > 100 µM | U-251 > 100 µM | HCT-116 > 100 µM | UACC-257 > 100 µM | SK-MEL-28 > 100 µM | T47D > 100 µM | SF-295 > 100 µM | PC-3 > 100 µM | SN12C > 100 µM | MDA-MB-231 > 100 µM | NCI/ADR-RES > 100 µM | RPMI-8226 > 100 µM | DU-145 > 100 µM
